The values that follow come from patent US20030216378A1, “Azepino[4,5-b]pyrano[3,2-e]indoles” (priority 2000, published 2003).

Where only a bound is given, the exact number is not on record here.

In general, melting point refers to the temperature of the solid-liquid transition.

Take `Cl.O=C(Cn1c2c(c3c4c(ccc31)OCCC4)CCNCC2)Nc1ccccc1`: the melting point was > 250 °C (dec.).
Then `C1=Cc2c(ccc3[nH]c4c(c23)CCN(Cc2ccccc2)CC4)OC1`, with 157 to 160 °C; and `Cl.c1cc2[nH]c3c(c2c2c1OCCC2)CCNCC3`, with > 283 °C (dec.); and `Cn1c2c(c3c4c(ccc31)OCC=C4)CCN(Cc1ccccc1)CC2` [Example 1, 10-Benzyl-7-methyl-7,8,9,10,11,12-hexahydro-3H-azepino[4,5-]pyrano[3,2-e]indole], with 112 to 114 °C.
With `O=C(O)Cn1c2c(c3c4c(ccc31)OCC=C4)CCN(Cc1ccccc1)CC2` [Example 8], the melting point lay in the range of 185 to 187 °C.
In the case of `O=C(Cn1c2c(c3c4c(ccc31)OCC=C4)CCN(Cc1ccccc1)CC2)Nc1ccccc1` [Example 9, 2-(10-benzyl-3,8,9,10,11,12-hexahydro-7H-azepino[4.5-b]pyrano[3,2-e]indol-7-yl)-N-phenylacetamide], the melting point lay in the range of 134 to 136 °C.
